Patent US11840686B2, “Modulation of prekallikrein (PKK) expression” (Ionis Pharmaceuticals, Inc., priority 2013, dated 2023)

How the values were obtained:
PKK protein = PKK protein in cynomolgus monkey plasma by ELISA (Example 8); format: in vivo; conditions: 40 mg/kg sc
Description: Approximately 0.9 mL of blood was collected each time from all available animals at pre-dose, day 17, day 31, day 45, day 59, and day 73, and placed in tubes containing 3.2% sodium citrate. The tubes were centrifuged (3000 rpm for 10 min at room temperature) to obtain plasma. PKK protein levels were measured in the plasma by ELISA. The results are presented in Table 52, expressed as percentage inhibition compared to the PBS control levels.

[1] = cynomolgus monkey, in vivo, sc, 40 mg/kg
Description: (§1) Prior to the study, the monkeys were kept in quarantine for a 30-day period, during which the animals were observed daily for general health. The monkeys were 2-4 years old and weighed between 2 and 4 kg. Ten groups of four randomly assigned male cynomolgus monkeys each were injected subcutaneously with ISIS oligonucleotide or PBS. PBS solution or ISIS oligonucleotides at a dose of 40 mg/kg were administered initially with a loading regimen consisting of four doses on the first week of the study (days 1, 3, 5, and 7), followed by a maintenance regimen consisting of once weekly administration starting on Day 14 (weeks 2 to 13). Subcutaneous injections were performed in clock-wise rotations at 4 sites on the back; one site per dose. The injection sites were delineated by tattoo, while sedated using ketamine, and were separated by a minimum of 3 cm.
To evaluate the effect of ISIS oligonucleotides on hepatic function, the monkeys were fasted overnight. Approximately, 1.5 mL of blood samples were collected from all the study groups. Blood was collected in tubes without anticoagulant for serum separation. The tubes were kept at room temperature for a minimum of 90 min and then centrifuged at 3,000 rpm for 10 min. Levels of various liver function markers were measured using a Toshiba 120FR NEO chemistry analyzer (Toshiba Co., Japan).

[2] = cynomolgus monkey, in vivo, sc, 40 mg/kg; remark: listed apart in the source
Description: as §1
To evaluate any effect of ISIS oligonucleotides in cynomolgus monkeys on hematologic parameters, blood samples of approximately 1.2 mL of blood was collected pre-dose and on day 87 or day 88 from each of the available study animals in tubes containing K2-EDTA. Samples were analyzed for red blood cell (RBC) count, white blood cells (WBC) count, platelet count, hemoglobin content and hematocrit, using an ADVIA2120i hematology analyzer (SIEMENS, USA).

[3] = cynomolgus monkey, in vivo, sc, 40 mg/kg; remark: listed apart in the source
Description: as §1
To evaluate the effect of ISIS oligonucleotides on kidney function, the monkeys were fasted overnight. Approximately, 1.5 mL of blood samples were collected from all the study groups. Blood was collected in tubes without anticoagulant for serum separation. The tubes were kept at room temperature for a minimum of 90 min and then centrifuged at 3,000 rpm for 10 min. Levels of BUN and creatinine were measured using a Toshiba 120FR NEO chemistry analyzer (Toshiba Co., Japan).

[4] = cynomolgus monkey, in vivo, sc, 40 mg/kg; remark: listed apart in the source
Description: as §1
Kidney function was also assessed by urinalysis. Fresh urine from all animals was collected using a clean cage pan on wet ice. Food was removed overnight the day before fresh urine collection was done but water was supplied. The total protein and creatinine levels were measured using a Toshiba 120FR NEO automated chemistry analyzer (Toshiba Co., Japan) and the protein to creatinine ratio was calculated.

[5] = cynomolgus monkey, in vivo, sc, 40 mg/kg; remark: listed apart in the source
Description: as §1
To evaluate any inflammatory effect of ISIS oligonucleotides in cynomolgus monkeys, the monkeys were fasted overnight. Approximately, 1.5 mL of blood samples were collected from all the study groups. Blood was collected in tubes without anticoagulant for serum separation. The tubes were kept at room temperature for a minimum of 90 min and then centrifuged at 3,000 rpm for 10 min. C-reactive protein (CRP), which is synthesized in the liver and which serves as a marker of inflammation, was measured using a Toshiba 120FR NEO chemistry analyzer (Toshiba Co., Japan). Complement C3 was also measured similarly, and the data is presented as a percentage of baseline values.

[6] = Tolerability / clinical observation of cynomolgus monkeys (Example 8); format: in vivo, cynomolgus monkey; conditions: cynomolgus monkeys, 40 mg/kg s.c.
Description: Cynomolgus monkeys were treated with ISIS antisense oligonucleotides selected from studies described above. Antisense oligonucleotide efficacy and tolerability were evaluated. The human antisense oligonucleotides tested are cross-reactive with the rhesus genomic sequence (GENBANK Accession No. NW_001118167.1 truncated from nucleotides 2358000 to 2391000 and designated herein as SEQ ID NO: 18).
During the study period, the monkeys were observed a minimum of once daily for signs of illness or distress. Any animal experiencing more than momentary or slight pain or distress due to the treatment, injury or illness was promptly reported to the responsible veterinarian and the Study Director. Any animal in poor health or in a possible moribund condition was identified for further monitoring and possible euthanasia. […] The protocols described in the Example were approved by the Institutional Animal Care and Use Committee (IACUC).

| Substance | PKK protein level reduction (%) in plasma relative to control levels (PKK protein; Day 17) | PKK protein level reduction (%) in plasma relative to control levels (PKK protein; Day 31) | PKK protein level reduction (%) in plasma relative to control levels (PKK protein; Day 45) | PKK protein level reduction (%) in plasma relative to control levels (PKK protein; Day 59) | PKK protein level reduction (%) in plasma relative to control levels (PKK protein; Day 73) | ALT [1] | AST [1] | Albumin [1] | HCT [2] | Hemoglobin [2] | Platelets [2] | RBC [2] | WBC [2] | Plasma BUN [3] | Plasma Creatinine [3] | Urine protein/creatinine ratio [4] | C3 (% of baseline) [5] | CRP [5] | clinical observation, euthanasia [6] |
| --- | --- | --- | --- | --- | --- | --- | --- | --- | --- | --- | --- | --- | --- | --- | --- | --- | --- | --- | --- |
| ISIS 546251: antisense oligonucleotide targeting nucleobases 27427-27466 of SEQ ID NO: 10; sequence in a table not shown (antisense GGCAAACATTCACTCCTTTA; 5-10-5 MOE gapmer, further chemistry not given here) | 71% | 75% | 75% | 81% | 77% | 58 IU/L | 51 IU/L | 3.7 g/dL | 43% | 12.9 g/dL | 419000 µL⁻¹ | 5.7e+06 µL⁻¹ | 8000 µL⁻¹ | 25.4 mg/dL | 1.1 mg/dL | 0.12 | 62 % of baseline | 0.7 mg/dL |  |
| ISIS 547455: antisense oligonucleotide targeting nucleobases 30570-30610 of SEQ ID NO: 10; sequence in a table not shown (ATATCATGATTCCCTTCTGA; 5-10-5 MOE gapmer, further chemistry not given here) | 26% | 33% | 43% | 58% | 58% | 61 IU/L | 56 IU/L | 3.8 g/dL | 34% | 10.2 g/dL | 448000 µL⁻¹ | 4.5e+06 µL⁻¹ | 13000 µL⁻¹ | 29.4 mg/dL | 0.9 mg/dL | 0.70 | 64 % of baseline | 1.9 mg/dL |  |
| ISIS 547445: gapmer targeting human PKK, selected from earlier screens; sequence in a table not shown (antisense GCCACTATAGATGCGCCAAA; gapmer, wing chemistry not given here) |  |  |  |  |  |  |  |  |  |  |  |  |  |  |  |  |  |  | two monkeys treated with ISIS 547445 were euthanized |
| ISIS 547457: antisense oligonucleotide targeting nucleobases 30570-30610 of SEQ ID NO: 10; sequence in a table not shown (AAGGCGATATCATGATTCCC; 5-10-5 MOE gapmer, further chemistry not given here) | 68% | 75% | 79% | 76% | 80% | 52 IU/L | 54 IU/L | 4.0 g/dL | 45% | 13.8 g/dL | 367000 µL⁻¹ | 6.4e+06 µL⁻¹ | 10000 µL⁻¹ | 24.3 mg/dL | 1.0 mg/dL | 0.03 | 53 % of baseline | 0.3 mg/dL |  |
| ISIS 546232: antisense oligonucleotide targeting human PKK; sequence in a table not shown (antisense AGGAACTTGGTGTGCCACTT; 5-10-5 MOE gapmer, further chemistry not given here) | 53% | 58% | 72% | 75% | 70% | 140 IU/L | 63 IU/L | 4.1 g/dL | 42% | 12.9 g/dL | 391000 µL⁻¹ | 5.4e+06 µL⁻¹ | 11000 µL⁻¹ | 22.7 mg/dL | 1.0 mg/dL | 0.03 | 50 % of baseline | 0.5 mg/dL |  |
| ISIS 547927: antisense oligonucleotide targeting human PKK; sequence in a table not shown (ATGGTCCGACACACAA; deoxy, MOE and cEt modifications, further chemistry not given here) | 8% | 0% | 15% | 10% | 18% | 61 IU/L | 59 IU/L | 4.2 g/dL | 41% | 12.5 g/dL | 461000 µL⁻¹ | 5.2e+06 µL⁻¹ | 45000 µL⁻¹ | 22.3 mg/dL | 1.0 mg/dL | 0.04 | 73 % of baseline | 0.2 mg/dL |  |
| ISIS 546828: gapmer targeting human PKK, selected from earlier screens; sequence in a table not shown (ACAGTATCACTGTACTAGTT; gapmer, wing chemistry not given here) | 0% | 8% | 23% | 39% | 39% | 67 IU/L | 75 IU/L | 3.7 g/dL | 43% | 12.9 g/dL | 408000 µL⁻¹ | 6e+06 µL⁻¹ | 11000 µL⁻¹ | 24.7 mg/dL | 0.9 mg/dL | 0.03 | 56 % of baseline | 0.6 mg/dL |  |
